The values below come from patent publication US8133872B2 (Industrial Cooperation Foundation, Chonbuk National …, priority 2008, dated 2012).

One test deals with pancreatic β-islet cells. Kind of test: Insulin secretion from isolated mouse pancreatic islets treated with NAADP (radioimmunoassay). It counts as cell-based, mice. Here is the method:
The isolation of pancreatic islets from six, 8-week-old ICR mice (Orientbio Inc., Seongnam-si, Korea) weighing 25-30 g was carried out according to the method of Lacy and Kotianovsky (Diabetes, 16, 35-39, 1967) in the following manner. Mice were sacrificed by cervical dislocation, and the peritoneum was incised. Hank's balanced salt solution (HBSS, Gibco, USA) containing 1 mg/mL of collagenase (Sigma, USA) was infused into the bile duct to inflate the pancreas, and then the pancreas was isolated. The isolated pancreas was incubated at 37° C. for 20 minutes, and then homogeneously agitated. The agitated solution was washed with HBSS to remove acinar cells, and then pancreatic islets of a given size were separated from the solution under stereoscopic binocular microscope. […] The concentration of insulin in the supernatant from which the pancreatic β-islet cells have been removed was measured. The measurement of the insulin concentration was carried out by radioimmunoassay using an insulin measurement kit (Diagnostic Products Corp., USA).
Insulin secretion from the mouse pancreatic β-islet cells after treatment by 0 nM and 50 nM at extracellular glucose concentrations maintained at 2.8 mM and 12 mM was measured, and the measurement results are shown in FIG. 1.

The test system of test [1] is type-2 diabetic mice (C57BL/KsJ-db/db Jcl). Kind of test: Serum insulin after glucose load in type-2 diabetic mice given NAADP (insulin RIA kit). The class given is in vivo. Here is the method:
The same test method as described in Example 2 was used, and 50 μl of blood was collected from the tail vein just before glucose load. At 30 minutes (showing the highest blood glucose level after glucose load) and at 120 minutes (showing the lowest blood glucose level after glucose load), the same amount of blood was collected and coagulated, and serum was separated from the blood. The separated serum was measured for insulin concentration using an insulin RIA kit (Linco Research Inc., USA).

Test [2] relates to pancreatic islet cells of type-2 diabetic mice. Kind of test: Immunohistochemical (anti-insulin antibody) and hematoxylin-eosin staining of pancreatic islets. The class given is in vivo. The note with it: 1 mg/kg/day for 3 weeks, FIG. 4. Here is the method:
After 120 minutes, the mice were sacrificed by cervical dislocation, and then immediately the peritoneum was incised. Then, the intestinal and pancreatic tissues were collected and fixed in 4% paraformaldehyde solution (solvent-phosphate buffer; pH 7.4; Sigma, USA) for 12 hours or more. Then, the pancreatic tissue was separated from the intestinal or adipose tissue, and the separated tissue was washed three times or more with a fresh fixture and then processed into paraffin-embedded tissue according to a conventional method.
Tissue sections were cut from the paraffin-embedded tissue at 5-μm intervals using a microtome (Shandon, Germany) and applied to slides coated with poly-L-lysine (Sigma, USA) before use in immunohistochemical staining. In order to remove paraffin from the pancreatic tissue-coated slides, sections were deparaffinized with xylene (Junsei, Japan) for 5 minutes to remove paraffin. Then, the sections were hydrated in 100-70% alcohol series and allowed to stand in phosphate buffer (pH 7.4) for 5 minutes. Then, the sections were treated with 3% hydrogen peroxide to remove intrinsic peroxidase, and then allowed to react with anti-insulin antibody (Dako, USA) at 4° C. for 12 hours. Then, the section samples were subjected to immunohistochemical staining with anti-insulin antibody using an immunohistochemical staining kit (A.B.I., Jeonju-si, Korea). […]

Test [3] relates to type-2 diabetic mice (C57BL/KsJ-db/db Jcl). In words: Glucose tolerance test (blood glucose after glucose load) in type-2 diabetic mice given NAADP by osmotic mini-pump. It counts as in vivo. An excerpt: Seven-week-old type-2 diabetic mice were divided into a control group (five animals) and test groups and tested using an osmotic mini-pump in the following manner. […] Then, the NAADP solution was infused into the abdominal cavity of the mice according to the method described in the supplier's manual.

The mark [4] stands for this setting: 1 mg/kg/day NAADP by osmotic mini-pump, sera at 0, 30 and 120 min.
The mark [5] stands for this setting: 1 mg/kg/day NAADP by osmotic mini-pump, fasting from 13 hours before testing.

“Also recorded” adds a separate entry of the source.

In the case of “nicotinic acid adenine dinucleotide phosphate [NAADP]”, in the test on pancreatic β-islet cells (50 nM NAADP, glucose 12 mM, 37° C., FIG. 1), the “insulin secretion from pancreatic β-islet cells” value is given as “great increase in insulin secretion”. The “NAADP concentration essential for stimulating insulin secretion from pancreatic β-islet cells” value with pancreatic β-islet cells (in the presence of glucose) fell in the range of 5 to 500 nM. Besides, in test [1] (setting [4]), the “blood insulin level after the peak, up to 120 minutes after glucose load” value is listed as “maintained at a constant level” and the “time of blood insulin peak after glucose load” value worked out at 30 min. For the same substance, the blood insulin concentration entry in test [1] (1 mg/kg/day, at 3 weeks (10-week-old), after glucose load, FIG. 3) is “clear increase in blood insulin concentration”. Moreover, in test [2], the “hematoxylin-eosin staining: capsules covering the pancreatic islets and β-islet cells” value is given as “clustered together”. Besides, in test [2] (compared to control group), the “positive response of pancreatic β-islet cells to anti-insulin antibody” value is “clearly increased”. Also, in test [3] (setting [5]), the “time at which blood glucose returned to the fasting blood glucose level after glucose load” value is 120 min and the “time of blood glucose peak after glucose load” value amounted to 30 min. The blood glucose levels result in test [3] (1 mg/kg/day intraperitoneally by osmotic mini-pump, 3 weeks, type-2 diabetic mice, FIG. 2) is “clear decrease in blood glucose levels; also recorded: clear effect of lowering the blood glucose levels”.
